Data taken from ChEMBL document CHEMBL5321200, “Discovery of the GSH responsive "Y-PROTACs" targeting ALK and CDK4/6 as a potential treatment for cancer” (Eur J Med Chem, 2023).
Activity calls are given as the source filed them. No cut-off for these calls is given here.

Key:
[1] = target: Protein cereblon/ALK tyrosine kinase receptor/Echinoderm microtubule-associated protein-like 4 (Homo sapiens) (UniProt Q9UM73+Q9HC35+Q96SW2); experiment: PROTAC activity at CRBN/EML4-ALK in human NCI-H3122 cells assessed as reduction in EML4-ALK fusion protein level at 10 uM incubated for 24 hrs by Western blot analysis; format: cell-based
[2] = target: Cyclin-dependent kinase 6 (Homo sapiens) (UniProt Q00534); experiment: Inhibition of CDK6 (unknown origin) at 0.05 uM by LANCE Ultra TR-FRET assay relative to control
NCI-H3122 [3] = experiment: Cell cycle arrest in human NCI-H3122 cells assessed as accumulation of cells at G0/G1 phase at 1.25 uM incubated for 24 hrs by propidium iodide staining based flow cytometric analysis (reference value: 48.68%); format: functional
[4] = target: ALK tyrosine kinase receptor (Homo sapiens) (UniProt Q9UM73); experiment: Inhibition of ALK (unknown origin) at 0.05 uM by LANCE Ultra TR-FRET assay relative to control
NCI-H3122 [5] = experiment: Cell cycle arrest in human NCI-H3122 cells assessed as accumulation of cells at S phase at 1.25 uM incubated for 24 hrs by propidium iodide staining based flow cytometric analysis (reference value: 29.94%); format: functional
NCI-H2228 = experiment: Antiproliferative activity against human NCI-H2228 cells assessed as inhibition of cell growth incubated for 3 to 5 days by MTT assay; format: functional, cell-based
[6] = target: ALK tyrosine kinase receptor (Homo sapiens) (UniProt Q9UM73); experiment: Inhibition of ALK (unknown origin) at 1 uM by LANCE Ultra TR-FRET assay relative to control
[7] = target: Protein cereblon/Cyclin-dependent kinase 4 (Homo sapiens, UniProt P11802+Q96SW2); experiment: PROTAC activity at CRBN/CDK4 in human L02 cells assessed as reduction in CDK4 protein level at 1 to 20 uM incubated for 24 hrs by Western blot analysis; format: cell-based; conditions: dose 1-20 µM
Chain of Protein cereblon/Cyclin-dependent kinase 4 (P11802 2-303 limits assumed): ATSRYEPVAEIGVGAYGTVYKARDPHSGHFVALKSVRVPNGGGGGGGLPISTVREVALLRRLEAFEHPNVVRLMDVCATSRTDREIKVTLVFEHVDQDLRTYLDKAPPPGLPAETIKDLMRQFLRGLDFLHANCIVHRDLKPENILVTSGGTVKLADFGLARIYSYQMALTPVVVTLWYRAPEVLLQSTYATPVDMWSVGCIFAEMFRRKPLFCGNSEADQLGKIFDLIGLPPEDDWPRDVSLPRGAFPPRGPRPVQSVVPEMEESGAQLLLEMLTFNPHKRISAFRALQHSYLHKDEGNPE
Chain of Protein cereblon/Cyclin-dependent kinase 4 (Q96SW2 whole entry partner): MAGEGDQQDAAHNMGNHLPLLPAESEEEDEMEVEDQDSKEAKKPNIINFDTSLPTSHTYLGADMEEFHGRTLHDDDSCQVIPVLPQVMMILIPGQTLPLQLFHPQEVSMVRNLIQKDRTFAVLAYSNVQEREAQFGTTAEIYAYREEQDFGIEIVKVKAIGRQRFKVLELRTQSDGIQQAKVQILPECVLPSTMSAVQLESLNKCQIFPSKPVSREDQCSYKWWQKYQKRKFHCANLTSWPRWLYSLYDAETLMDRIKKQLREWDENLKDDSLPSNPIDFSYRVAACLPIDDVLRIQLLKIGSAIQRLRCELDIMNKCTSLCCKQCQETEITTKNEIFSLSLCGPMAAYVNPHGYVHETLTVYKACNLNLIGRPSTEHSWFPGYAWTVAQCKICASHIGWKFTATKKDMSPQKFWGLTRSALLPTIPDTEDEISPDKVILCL

Chain of ALK tyrosine kinase receptor (Homo sapiens) (Q9UM73 19-1620 limits assumed): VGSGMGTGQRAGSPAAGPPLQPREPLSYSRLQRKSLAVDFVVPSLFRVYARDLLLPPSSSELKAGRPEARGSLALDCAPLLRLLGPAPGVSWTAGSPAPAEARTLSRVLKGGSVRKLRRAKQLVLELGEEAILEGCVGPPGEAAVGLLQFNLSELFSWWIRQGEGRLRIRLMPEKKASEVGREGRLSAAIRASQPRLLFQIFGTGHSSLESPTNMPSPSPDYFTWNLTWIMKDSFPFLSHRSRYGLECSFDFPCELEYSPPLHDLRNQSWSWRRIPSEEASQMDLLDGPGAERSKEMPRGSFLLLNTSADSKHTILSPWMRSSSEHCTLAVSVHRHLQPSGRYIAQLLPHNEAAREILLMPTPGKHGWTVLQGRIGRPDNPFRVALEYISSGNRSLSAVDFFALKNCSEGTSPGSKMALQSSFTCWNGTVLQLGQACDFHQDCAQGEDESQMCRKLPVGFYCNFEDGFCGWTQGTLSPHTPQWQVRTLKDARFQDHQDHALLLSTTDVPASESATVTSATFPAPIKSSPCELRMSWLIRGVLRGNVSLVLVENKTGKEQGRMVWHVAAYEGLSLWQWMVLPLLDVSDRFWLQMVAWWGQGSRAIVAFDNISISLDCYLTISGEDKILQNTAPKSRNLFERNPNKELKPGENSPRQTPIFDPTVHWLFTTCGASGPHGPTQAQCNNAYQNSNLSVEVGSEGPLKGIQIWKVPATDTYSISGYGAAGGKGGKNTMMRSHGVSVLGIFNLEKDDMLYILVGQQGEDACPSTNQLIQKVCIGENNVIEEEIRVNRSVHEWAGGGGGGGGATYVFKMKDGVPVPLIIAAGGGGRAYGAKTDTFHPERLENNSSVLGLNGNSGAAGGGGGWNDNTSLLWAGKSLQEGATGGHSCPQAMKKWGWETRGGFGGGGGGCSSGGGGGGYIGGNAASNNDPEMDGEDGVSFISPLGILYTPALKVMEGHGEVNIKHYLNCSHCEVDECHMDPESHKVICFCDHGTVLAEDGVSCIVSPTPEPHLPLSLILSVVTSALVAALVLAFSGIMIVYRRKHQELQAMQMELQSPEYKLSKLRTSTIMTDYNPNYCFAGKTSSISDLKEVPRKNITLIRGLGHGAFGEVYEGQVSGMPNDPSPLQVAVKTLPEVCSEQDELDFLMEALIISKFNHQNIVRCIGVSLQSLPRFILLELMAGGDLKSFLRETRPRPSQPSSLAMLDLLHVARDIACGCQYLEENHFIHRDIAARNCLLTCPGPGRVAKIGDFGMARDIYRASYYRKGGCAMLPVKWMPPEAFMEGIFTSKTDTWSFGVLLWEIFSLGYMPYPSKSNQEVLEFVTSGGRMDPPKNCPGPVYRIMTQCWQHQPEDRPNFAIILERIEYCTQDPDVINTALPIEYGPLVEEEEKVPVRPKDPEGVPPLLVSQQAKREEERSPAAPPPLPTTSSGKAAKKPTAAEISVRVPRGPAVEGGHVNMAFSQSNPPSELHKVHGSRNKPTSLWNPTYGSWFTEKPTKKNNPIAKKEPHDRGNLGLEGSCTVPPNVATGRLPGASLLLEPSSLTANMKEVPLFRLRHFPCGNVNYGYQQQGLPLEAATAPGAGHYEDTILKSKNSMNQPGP
Chain of Protein cereblon/ALK tyrosine kinase receptor/Echinoderm microtubule-associated protein-like 4 (Homo sapiens) (Q96SW2 whole entry partner, the tested form may be a part): as the sequence (Q96SW2 whole entry partner) above
Chain of Protein cereblon/ALK tyrosine kinase receptor/Echinoderm microtubule-associated protein-like 4 (Homo sapiens) (Q9HC35 whole entry partner, the tested form may be a part): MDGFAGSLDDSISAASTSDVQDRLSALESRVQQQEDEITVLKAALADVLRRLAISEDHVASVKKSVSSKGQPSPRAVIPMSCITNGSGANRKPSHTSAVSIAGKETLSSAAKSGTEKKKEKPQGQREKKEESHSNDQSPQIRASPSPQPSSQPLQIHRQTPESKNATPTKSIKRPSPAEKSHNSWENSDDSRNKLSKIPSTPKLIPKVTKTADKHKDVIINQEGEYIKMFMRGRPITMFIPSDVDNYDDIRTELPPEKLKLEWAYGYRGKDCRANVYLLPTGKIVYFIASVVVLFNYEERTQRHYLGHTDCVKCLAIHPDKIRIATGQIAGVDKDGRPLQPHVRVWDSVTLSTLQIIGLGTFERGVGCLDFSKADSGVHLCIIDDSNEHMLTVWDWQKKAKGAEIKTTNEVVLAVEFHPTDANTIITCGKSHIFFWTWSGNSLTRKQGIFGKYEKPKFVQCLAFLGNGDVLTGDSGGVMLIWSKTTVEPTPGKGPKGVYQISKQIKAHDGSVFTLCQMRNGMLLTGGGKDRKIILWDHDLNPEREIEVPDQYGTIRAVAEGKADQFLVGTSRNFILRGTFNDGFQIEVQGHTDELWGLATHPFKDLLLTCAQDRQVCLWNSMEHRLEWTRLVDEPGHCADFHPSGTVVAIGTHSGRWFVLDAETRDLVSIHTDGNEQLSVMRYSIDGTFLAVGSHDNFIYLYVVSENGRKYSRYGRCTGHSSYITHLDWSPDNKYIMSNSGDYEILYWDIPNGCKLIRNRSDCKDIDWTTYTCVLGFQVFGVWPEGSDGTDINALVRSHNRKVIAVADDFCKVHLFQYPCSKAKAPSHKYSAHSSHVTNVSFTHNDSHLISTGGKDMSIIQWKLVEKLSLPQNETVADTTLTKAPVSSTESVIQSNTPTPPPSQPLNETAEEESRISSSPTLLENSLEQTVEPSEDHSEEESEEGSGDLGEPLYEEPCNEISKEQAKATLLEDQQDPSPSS
Chain of Protein cereblon/ALK tyrosine kinase receptor/Echinoderm microtubule-associated protein-like 4 (Homo sapiens) (Q9UM73 19-1620 limits assumed): as the sequence (Q9UM73 19-1620 limits assumed) above
Chain of Cyclin-dependent kinase 6 (Homo sapiens) (Q00534 whole entry): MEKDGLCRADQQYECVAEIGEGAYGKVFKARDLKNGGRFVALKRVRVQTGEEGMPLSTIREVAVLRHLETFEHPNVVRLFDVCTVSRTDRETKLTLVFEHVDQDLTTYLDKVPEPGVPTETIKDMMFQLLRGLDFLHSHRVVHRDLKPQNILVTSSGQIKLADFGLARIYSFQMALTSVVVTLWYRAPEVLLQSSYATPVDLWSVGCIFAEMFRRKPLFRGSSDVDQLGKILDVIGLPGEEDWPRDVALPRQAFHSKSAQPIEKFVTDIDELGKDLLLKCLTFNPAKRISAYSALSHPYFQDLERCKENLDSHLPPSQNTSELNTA

For `CC(=O)c1c(C)c2cnc(Nc3ccc(N4CCN(CC(=O)NCCSSCCN(CC(=O)NCCNc5cccc6c5C(=O)N(C5CCC(=O)NC5=O)C6=O)C(=O)CCCCCCC(=O)N5CCC(c6cc(OC(C)C)c(Nc7ncc(Cl)c(Nc8ccccc8S(=O)(=O)C(C)C)n7)cc6C)CC5)CC4)cn3)nc2n(C2CCCC2)c1=O` (stereo not drawn), the Activity [1] was “Active”, the inhibition [2] was 92% and the Activity (NCI-H3122 [3]) was 72.25%. The inhibition [4] was 68.3%, the Activity (NCI-H3122 [5]) was 10.58% and the IC50 (NCI-H2228) was 5.56 µM. For the same molecule, the inhibition [6] was 96.4% and the Activity [7] was “inactive”.
